Each molecule was assayed against NaV 1.8 channel (Homo sapiens, UniProt Q9Y5Y9) (assay: Activity against NaV 1.8 channel (optical membrane potential assay)).
NaV 1.8 channel, sequence (Q9Y5Y9 whole entry): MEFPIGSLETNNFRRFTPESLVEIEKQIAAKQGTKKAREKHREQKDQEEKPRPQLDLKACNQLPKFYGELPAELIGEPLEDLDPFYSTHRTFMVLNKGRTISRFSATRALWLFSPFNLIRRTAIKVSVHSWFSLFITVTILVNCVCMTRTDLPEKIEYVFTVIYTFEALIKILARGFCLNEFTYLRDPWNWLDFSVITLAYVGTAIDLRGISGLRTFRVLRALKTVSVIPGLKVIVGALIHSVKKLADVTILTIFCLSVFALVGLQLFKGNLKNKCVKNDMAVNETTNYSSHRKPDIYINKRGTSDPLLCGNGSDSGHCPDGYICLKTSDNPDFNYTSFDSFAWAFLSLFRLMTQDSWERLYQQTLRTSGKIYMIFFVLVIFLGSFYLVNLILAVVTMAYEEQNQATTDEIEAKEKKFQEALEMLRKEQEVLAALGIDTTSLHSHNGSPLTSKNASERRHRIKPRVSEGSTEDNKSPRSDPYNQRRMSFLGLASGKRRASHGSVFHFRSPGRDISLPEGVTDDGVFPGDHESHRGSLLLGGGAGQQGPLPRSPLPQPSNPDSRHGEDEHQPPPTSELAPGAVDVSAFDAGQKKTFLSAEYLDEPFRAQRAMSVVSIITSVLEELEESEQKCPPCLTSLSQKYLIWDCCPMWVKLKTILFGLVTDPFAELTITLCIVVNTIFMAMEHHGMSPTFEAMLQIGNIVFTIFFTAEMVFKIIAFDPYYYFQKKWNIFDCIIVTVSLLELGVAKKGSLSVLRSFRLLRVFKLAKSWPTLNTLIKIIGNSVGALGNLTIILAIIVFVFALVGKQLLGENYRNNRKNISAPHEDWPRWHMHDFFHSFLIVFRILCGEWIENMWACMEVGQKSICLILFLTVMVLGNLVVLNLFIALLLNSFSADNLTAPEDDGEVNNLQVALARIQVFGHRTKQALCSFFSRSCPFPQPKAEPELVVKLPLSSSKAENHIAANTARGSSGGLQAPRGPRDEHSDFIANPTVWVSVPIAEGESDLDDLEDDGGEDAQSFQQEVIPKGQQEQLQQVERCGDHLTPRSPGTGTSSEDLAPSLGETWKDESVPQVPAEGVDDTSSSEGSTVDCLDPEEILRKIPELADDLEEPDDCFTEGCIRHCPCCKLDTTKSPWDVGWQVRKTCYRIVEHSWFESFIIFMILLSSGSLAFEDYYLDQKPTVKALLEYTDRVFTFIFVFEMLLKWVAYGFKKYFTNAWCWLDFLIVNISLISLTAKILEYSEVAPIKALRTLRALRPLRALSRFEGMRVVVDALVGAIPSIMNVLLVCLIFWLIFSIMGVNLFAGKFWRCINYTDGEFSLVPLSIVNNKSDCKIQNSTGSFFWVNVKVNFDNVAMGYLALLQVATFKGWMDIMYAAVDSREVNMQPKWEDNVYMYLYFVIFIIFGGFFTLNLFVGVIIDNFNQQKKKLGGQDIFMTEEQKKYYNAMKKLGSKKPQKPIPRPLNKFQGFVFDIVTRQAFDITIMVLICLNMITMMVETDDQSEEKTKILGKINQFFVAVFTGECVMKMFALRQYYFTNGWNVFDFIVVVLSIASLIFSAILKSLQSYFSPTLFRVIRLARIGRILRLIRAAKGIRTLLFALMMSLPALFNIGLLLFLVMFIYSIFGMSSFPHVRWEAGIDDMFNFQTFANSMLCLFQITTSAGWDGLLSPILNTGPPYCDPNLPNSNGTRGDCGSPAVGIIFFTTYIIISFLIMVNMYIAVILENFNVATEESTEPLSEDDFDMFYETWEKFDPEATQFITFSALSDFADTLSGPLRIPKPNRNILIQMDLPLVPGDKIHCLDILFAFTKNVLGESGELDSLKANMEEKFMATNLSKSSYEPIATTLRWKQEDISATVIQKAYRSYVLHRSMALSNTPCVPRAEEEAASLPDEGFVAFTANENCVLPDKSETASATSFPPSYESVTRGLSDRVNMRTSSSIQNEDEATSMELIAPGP
Format: cell-based
Protocol: Compounds of the invention are useful as antagonists of voltage-gated sodium ion channels. Antagonist properties of test compounds were assessed as follows. Cells expressing the NaV of interest were placed into microtiter plates. After an incubation period, the cells were stained with fluorescent dyes sensitive to the transmembrane potential. The test compounds were added to the microtiter plate. The cells were stimulated with either a chemical or electrical means to evoke a NaV dependent membrane potential change from unblocked channels, which was detected and measured with trans-membrane potential-sensitive dyes. Antagonists were detected as a decreased membrane potential response to the stimulus. The optical membrane potential assay utilized voltage-sensitive FRET sensors described by Gonzalez and Tsien (See, Gonzalez, J. E. and R. Y. Tsien (1995) “Voltage sensing by fluorescence resonance energy transfer in single cells” Biophys J 69(4): 1272-80, and Gonzalez, J. E. and R. Y. Tsien (1997) “Improved indicators of cell membrane potential that use fluorescence resonance energy transfer” Chem Biol 4(4): 269-77) in combination with instrumentation for measuring fluorescence changes such as the Voltage/Ion Probe Reader (VIPR®) (See, Gonzalez, J. E., K. Oades, et al. (1999) “Cell-based assays and instrumentation for screening ion-channel targets” Drug Discov Today 4(9): 431-439).
24 hours before the assay on VIPR, CHO cells endogenously expressing a NaV1.2 type voltage-gated NaV are seeded in 96-well poly-lysine coated plates at 60,000 cells per well. Other subtypes are performed in an analogous mode in a cell line expressing the NaV of interest. • 1) On the day of the assay, medium is aspirated and cells are washed twice with 225 μL of Bath Solution #2 (BS#2). • 2) A 15 uM CC2-DMPE solution is prepared by mixing 5 mM coumarin stock solution with 10% Pluronic 127 1:1 and then dissolving the mix in the appropriate volume of BS#2. • 3) After bath solution is removed from the 96-well plates, the cells are loaded with 80 μL of the CC2-DMPE solution. Plates are incubated in the dark for 30 minutes at room temperature. • 4) While the cells are being stained with coumarin, a […] solution in BS#2 is prepared. In addition to DiSBAC2(3), this solution should contain 0.75 mM ABSCl and […] (prepared from 10 mM EtOH stock, Sigma #V-5754). • 5) After 30 minutes, CC2-DMPE is removed and the cells are washed twice with 225 μL of BS#2. As before, the residual volume should be 40 μL. • 6) Upon removing the bath, the cells are loaded with 80 μL of the DiSBAC2(3) solution, after which test compound, dissolved in DMSO, is added to achieve the desired test concentration to each well from the drug addition plate and mixed thoroughly. The volume in the well should be roughly 121 μL. The cells are then incubated for 20-30 minutes. • 7) Once the incubation is complete, the cells are ready to be assayed on VIPR® with a sodium add back protocol. 120 μL of Bath solution #1 is added to stimulate the NaV dependent depolarization. […] was used as an antagonist positive control for block of the NaV channel.
Data are analyzed and reported as normalized ratios of background-subtracted emission intensities measured in the 460 nm and 580 nm channels. Background intensities are then subtracted from each assay channel. Background intensities are obtained by measuring the emission intensities during the same time periods from identically treated assay wells in which there are no cells. The response as a function of time is then reported as the ratios obtained using the following formula: […]
The data is further reduced by calculating the initial (Ri) and final (Rf) ratios. These are the average ratio values during part or all of the pre-stimulation period, and during sample points during the stimulation period. The response to the stimulus R=Rf/Ri is then calculated. […]
For `Cc1ccc2c(N3CC[C@@H](NC(=O)c4cccc(OC(F)(F)F)c4)C3)nc(-c3ccccc3O)nc2c1` [Example 325, N—((R)-1-(2-(2-Hydroxyphenyl)-7-methylquinazolin-4-yl)pyrrolidin-3-yl)-3-(trifluoromethoxy)benzamide], the IC50 was over 10 µM. Molecule `Cc1ccc2c(N3CCCC(C(=O)NCc4cccnc4)C3)nc(-c3ccccc3O)nc2c1` (centres unmarked) [Example 201, 1-(2-(2-Hydroxyphenyl)-7-methylquinazolin-4-yl)-N-((pyridin-3-yl)methyl)piperidine-3-carboxamide] has an IC50 of 2 to 10 µM. Molecule `Cc1ccc2c(N3CC[C@@H](NC(=O)[C@H]4CCCO4)C3)nc(-c3ccccc3O)nc2c1` [Example 302, (R,R)-Tetrahydro-furan-2-carboxylic acid {1-[2-(2-hydroxy-phenyl)-7-methyl-quinazolin-4-yl]-pyrrolidin-3-yl}-amide] has an IC50 of over 10 µM. `Cc1ccc2c(N3CCC(NC(=O)[C@H]4CCCO4)CC3)nc(-c3c(C)cccc3O)nc2c1` [Example 218, (2R)-Tetrahydro-N-(1-(2-(2-hydroxy-6-methylphenyl)-7-methylquinazolin-4-yl)piperidin-4-yl)furan-2-carboxamide] showed an IC50 of 2 to 10 µM. Molecule `Cc1ccc2c(N3CCN(C(=O)OCc4cccnc4)CC3)nc(-c3ccccc3O)nc2c1` [Example 132, (Pyridin-3-yl)methyl 4-(2-(2-hydroxyphenyl)-7-methylquinazolin-4-yl)piperazine-1-carboxylate] has an IC50 of 2 to 10 µM. Molecule `Cc1ccc2c(N3CCN(C(=O)[C@@H](O)C(C)(C)C)CC3)nc(-c3c(O)cccc3F)nc2c1` [Example 138, (S)-1-(4-(2-(2-Fluoro-6-hydroxyphenyl)-7-methylquinazolin-4-yl)piperazin-1-yl)-2-hydroxy-3,3-dimethylbutan-1-one] has an IC50 of over 10 µM. `Cc1ccc2c(N3CCN(C(=O)CC4CCOCC4)CC3)nc(-c3ccccc3O)nc2c1` [Example 105] showed an IC50 of 2 to 10 µM. For `Cc1ccc2c(N3CCC(NC(=O)[C@@H](O)CC(C)C)CC3)nc(-c3ccccc3O)nc2c1` [Example 268], the IC50 was over 10 µM. `Cc1ccc2c(N3CC[C@@H](NC(=O)c4ccccn4)C3)nc(-c3ccccc3O)nc2c1` [Example 354, N—((R)-1-(2-(2-Hydroxyphenyl)-7-methylquinazolin-4-yl)pyrrolidin-3-yl)picolinamide] gave an IC50 of 2 to 10 µM. With `COCCOC(=O)NC1CCN(c2nc(-c3ccccc3O)nc3ccc(F)cc23)CC1` [Example 258, 2-Methoxyethyl 1-(6-fluoro-2-(2-hydroxyphenyl)quinazolin-4-yl)piperidin-4-ylcarbamate] the IC50 was under 2 µM. `O=C(OCc1cccnc1)N1CCN(c2nc(-c3ccccc3O)nc3ccccc23)CC1` [Example 107, (Pyridin-3-yl)methyl 4-(2-(2-hydroxyphenyl)quinazolin-4-yl)piperazine-1-carboxylate] gave an IC50 of 2 to 10 µM. `Cc1ccc2c(N3CC[C@@H](NC(=O)c4ccncc4)C3)nc(-c3ccccc3O)nc2c1` [Example 353, N—((R)-1-(2-(2-Hydroxyphenyl)-7-methylquinazolin-4-yl)pyrrolidin-3-yl)isonicotinamide] gave an IC50 of over 10 µM. `CC(C)C[C@@H](O)C(=O)N1CCN(c2nc(-c3ccccc3O)nc3ccc(F)cc23)CC1` [Example 143, (R)-1-(4-(6-Fluoro-2-(2-hydroxyphenyl)quinazolin-4-yl)piperazin-1-yl)-2-hydroxy-4-methylpentan-1-one] was tested, and the IC50 was 2 to 10 µM. Work on `CC(C)=CC(O)C(=O)N1CCN(c2nc(-c3ccccc3O)nc3cc(C)ccc23)CC1` (centres unmarked) [Example 189] yielded an IC50 of 2 to 10 µM. Work on `Cc1ccc2c(N3CCN(C(=O)[C@H](O)CC(C)C)CC3CO)nc(-c3ccccc3O)nc2c1` (stereo partly drawn) [Example 172, (R)-2-Hydroxy-1-{3-hydroxymethyl-4-[2-(2-hydroxy-phenyl)-7-methyl-quinazolin-4-yl]-piperazin-1-yl}-4-methyl-pentan-1-one] yielded an IC50 of over 10 µM. Molecule `CCCCC(O)C(=O)NC1CCN(c2nc(-c3ccccc3O)nc3cc(C)ccc23)CC1` (centres unmarked) [Example 245, 2-Hydroxy-N-(1-(2-(2-hydroxyphenyl)-7-methylquinazolin-4-yl)piperidin-4-yl)hexanamide] has an IC50 of over 10 µM. For `Cc1ccc2c(N3CCN(C(=O)[C@@H](O)C(C)(C)C)CC3)nc(-c3ccccc3O)nc2c1` [Example 166, (S)-2-Hydroxy-1-(4-(2-(2-hydroxyphenyl)-7-methylquinazolin-4-yl)piperazin-1-yl)-3,3-dimethylbutan-1-one], the IC50 was over 10 µM. For `Cc1ccc2c(N3CCN(C(=O)[C@H](O)Cc4ccccc4)CC3)nc(-c3ccccc3O)nc2c1` [Example 130, (R)-2-Hydroxy-1-{4-[2-(2-hydroxy-phenyl)-7-methyl-quinazolin-4-yl]-piperazin-1-yl}-3-phenylpropan-1-one], the IC50 was over 10 µM. With `CCC(C)(O)C(=O)NC1CCN(c2nc(-c3ccccc3O)nc3cc(C)ccc23)CC1` (centres unmarked) [Example 248, 2-Hydroxy-N-(1-(2-(2-hydroxyphenyl)-7-methylquinazolin-4-yl)piperidin-4-yl)-2-methylbutanamide] the IC50 was 2 to 10 µM. `CC(C)COC(=O)NC[C@@H]1CCN(c2nc(-c3ccccc3O)nc3ccc(F)cc23)C1` [Example 376, Isobutyl ((S)-1-(6-fluoro-2-(2-hydroxyphenyl)quinazolin-4-yl)pyrrolidin-3-yl)methylcarbamate] was tested, and the IC50 was over 10 µM. In the case of `O=C(CC1CCOCC1)N1CCN(c2nc(-c3ccccc3O)nc3ccc(F)cc23)CC1` [Example 128, 1-(4-(6-Fluoro-2-(2-hydroxyphenyl)quinazolin-4-yl)piperazin-1-yl)-2-(tetrahydro-2H-pyran-4-yl)ethanone], the IC50 is reported as 2 to 10 µM. With `Cc1ccc2c(N3CCC(NC(=O)[C@H](O)CC(C)(C)C)CC3)nc(-c3c(O)cccc3F)nc2c1` [Example 249, (2R)—N-(1-(2-(2-Fluoro-6-hydroxyphenyl)-7-methylquinazolin-4-yl)piperidin-4-yl)-2-hydroxy-4,4-dimethylpentanamide] the IC50 was 2 to 10 µM. Molecule `Cc1ccc2c(N3CCCC(CNC(=O)C4CC4)C3)nc(-c3ccccc3O)nc2c1` (centres unmarked) [Example 212, N—((1-(2-(2-Hydroxyphenyl)-7-methylquinazolin-4-yl)piperidin-3-yl)methyl)cyclopropanecarboxamide] has an IC50 of over 10 µM. `Cc1ccc2c(N3CCN(C(=O)[C@@H](O)CC(C)C)CC3)nc(-c3ccccc3O)nc2c1` [Example 144, (S)-2-Hydroxy-1-(4-(2-(2-hydroxyphenyl)-7-methylquinazolin-4-yl)piperazin-1-yl)-4-methylpentan-1-one] was tested, and the IC50 was 2 to 10 µM. Work on `O=C(O[C@@H]1CCOC1)N1CCN(c2nc(-c3ccccc3O)nc3ccc(F)cc23)CC1` [Example 148, (R)-Tetrahydrofuran-3-yl 4-(6-fluoro-2-(2-hydroxyphenyl)quinazolin-4-yl)piperazine-1-carboxylate] yielded an IC50 of 2 to 10 µM. In the case of `Cc1ccc2c(N3CCC[C@H](CNC(=O)O[C@@H]4CCOC4)C3)nc(-c3ccccc3O)nc2c1` [Example 216, (R)-Tetrahydrofuran-3-yl ((R)-1-(2-(2-hydroxyphenyl)-7-methylquinazolin-4-yl)piperidin-3-yl)methylcarbamate], the IC50 is reported as over 10 µM. Molecule `Cc1ccc2c(N3CCN(C(=O)OCC4CCOC4)CC3)nc(-c3ccccc3O)nc2c1` (centres unmarked) [Example 184] has an IC50 of 2 to 10 µM. `C#CC(O)C(=O)N1CCN(c2nc(-c3ccccc3O)nc3cc(C)ccc23)CC1` (centres unmarked) [Example 158, 2-Hydroxy-1-(4-(2-(2-hydroxyphenyl)-7-methylquinazolin-4-yl)piperazin-1-yl)but-3-yn-1-one] showed an IC50 of over 10 µM. `Cc1ccc2c(N3CCC(NC(=O)[C@H]4CCCO4)C3)nc(-c3ccccc3O)nc2c1` (stereo in doubt) [Example 303, (2R)-Tetrahydro-N—((S)-1-(2-(2-hydroxyphenyl)-7-methylquinazolin-4-yl)pyrrolidin-3-yl)furan-2-carboxamide] gave an IC50 of 2 to 10 µM.

— US7928107B2, “Quinazolines useful as modulators of ion channels” (Vertex Pharmaceuticals Incorporated, priority 2004, dated 2011)
